Measurements published in PubChem BioAssay (NCI).
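Following 48 hours of exposure in 96-well plates, responses at five concentrations were used to interpolate endpoints linearly. GI50 is the concentration that inhibits growth by half. The concentration for full growth arrest is given as TGI.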

Tests used:
Experiment in all cases: NCI anticancer screen, dose series, 48 h
ACHN renal = system: ACHN renal
COLO 205 colon = system: COLO 205 colon
HCC-2998 colon = system: HCC-2998 colon
HCT-116 colon = system: HCT-116 colon
HCT-15 colon = system: HCT-15 colon
OVCAR-4 ovarian = system: OVCAR-4 ovarian
SNB-19 CNS = system: SNB-19 CNS
NCI-H226 lung = system: NCI-H226 lung
DU-145 prostate = system: DU-145 prostate
T-47D breast = system: T-47D breast

Row | Compound | TGI (ACHN renal) | TGI (COLO 205 colon) | TGI (HCC-2998 colon) | TGI (HCT-116 colon) | TGI (HCT-15 colon) | TGI (OVCAR-4 ovarian) | TGI (SNB-19 CNS) | TGI (NCI-H226 lung) | GI50 (ACHN renal) | GI50 (DU-145 prostate) | TGI (DU-145 prostate) | GI50 (HCC-2998 colon) | GI50 (HCT-116 colon) | GI50 (HCT-15 colon) | GI50 (NCI-H226 lung) | GI50 (OVCAR-4 ovarian) | GI50 (SNB-19 CNS) | GI50 (T-47D breast) | TGI (T-47D breast) | GI50 (COLO 205 colon)
1 | CC1=NNC(=NCCN(C)C)C/C1=C/c1ccccc1Cl | > 100 µM | > 100 µM | > 100 µM | > 100 µM | > 100 µM | > 100 µM | > 100 µM | – | – | – | – | – | – | – | – | – | – | – | – | –
2 | Cc1ccc(S(=O)(=O)N(/N=C(\N)Oc2ccc(Cl)cc2)C(=N)Oc2ccc(Cl)cc2)cc1 | > 100 µM | > 100 µM | > 100 µM | > 100 µM | > 100 µM | > 100 µM | > 100 µM | > 100 µM | – | – | – | – | – | – | – | – | – | – | – | –
3 | Cl.[Pt].[c-]1ccccc1-c1ccccn1.c1ccc(P(c2ccccc2)C([PH+](c2ccccc2)c2ccccc2)[PH+](c2ccccc2)c2ccccc2)cc1 | 11.5 µM | – | 18.6 µM | 7.11 µM | > 100 µM | 8.63 µM | 21.2 µM | 9.81 µM | 1840 nM | 1900 nM | 16.4 µM | 3.64 µM | 1580 nM | 2810 nM | 1880 nM | 0.662 µM | 764 nM | 0.916 µM | 19.5 µM | –
4 | O=C(c1ccccc1)C1C(C(=O)c2ccccc2)N1Cc1ccccc1 (stereo not drawn) | > 100 µM | 58.3 µM | > 100 µM | – | > 100 µM | > 100 µM | > 100 µM | > 100 µM | – | – | 85.8 µM | – | – | – | – | – | – | – | 49.8 µM | –
5 | Cc1nc(C)c(C(=O)Nc2cccc3c2C(=O)NC3=O)cc1C(=O)Nc1cccc2c1C(=O)NC2=O | > 100 µM | > 100 µM | > 100 µM | > 100 µM | > 100 µM | > 100 µM | > 100 µM | > 100 µM | – | – | – | – | – | – | – | – | – | – | – | –
6 | Cn1c2ccccc2c(=Nc2ccccc2)c2c3ccccc3[nH]c21 | 1.99 µM | 18.8 µM | 46.4 µM | 2.52 µM | 3.49 µM | 22 µM | – | 2 µM | 755 nM | 1740 nM | 4.36 µM | 3.23 µM | 1260 nM | 1510 nM | 615 nM | 5.41 µM | – | 3.91 µM | > 100 µM | 4.53 µM
7 | Nc1nc2c(ncn2C2OC(CO)C(O)C2N)c(=O)[nH]1 (stereo not drawn) | > 100 µM | > 100 µM | > 100 µM | > 100 µM | > 100 µM | – | > 100 µM | – | – | – | – | – | – | – | – | – | – | – | – | –
8 | N/C(=N\NS(=O)(=O)c1ccccc1)Oc1ccc(Cl)cc1 | > 100 µM | > 100 µM | > 100 µM | > 100 µM | > 100 µM | > 100 µM | > 100 µM | > 100 µM | – | – | – | – | – | – | – | – | – | – | – | –
9 | Oc1ccc2oc3ncc(Cl)c(-c4ccccc4)c3c2c1 | > 100 µM | > 100 µM | – | > 100 µM | > 100 µM | > 100 µM | > 100 µM | > 100 µM | > 100000 nM | > 100000 nM | > 100 µM | – | > 100000 nM | > 100000 nM | > 100000 nM | > 100 µM | > 100000 nM | > 100 µM | > 100 µM | > 100 µM
10 | Cc1cnc[nH]c1=O | > 100 µM | > 100 µM | > 100 µM | > 100 µM | > 100 µM | > 100 µM | > 100 µM | > 100 µM | – | – | – | – | – | – | – | – | – | – | – | –
